What was measured:
intact ZIKV particles [1] = test: Direct ELISA matrix effect in urine and serum; assay type: binding, Zika virus (ZIKV); conditions: urine diluted 1:1, serum 1:10; 10^5 and 10^6 copies/mL ZIKV coated
Procedure: Usually, the presence of ZIKV in affected bodies is detected in biological fluids. Therefore, the analytical sensitivity of the selected peptides was tested in two biological matrices, namely, urine and serum. The matrix effect was investigated to understand how real biological fluids could modify the binding efficiency of the peptides.
FIG. 4 depicts the ELISA data using solutions of peptides with or without the urine and serum obtained coating clear 96-well plates with 10^^5 and 10^^6 copies/mL of intact ZIKV particles. Urine and serum were 1:1 and 1:10 diluted, respectively, with a concentrated peptide PBS solution (10 mM PBS, pH 7.4) to obtain a peptide final concentration of 0.5 μM for C3 and C6, 5 μM for C7 and 20 μM for mono-arm peptides (P2 and X1).

[2] = system: three serotypes of DENV (DENV-1, -2 and -3); test: Direct ELISA cross-reactivity study, ZIKV vs DENV; assay type: binding, Dengue virus (DENV); conditions: all DENV serotypes; plates coated with 10^5 copies/mL of intact virus particles
Procedure: (§1) To optimize all parameters of the direct ELISA protocol, Pierce 96-Well Polystyrene Plates, (ThermoFisher Scientific) were coated overnight at 4° C. with different concentrations of intact virus particles (ZIKV or DENV). The intact virus particles were diluted using 100 mM NaHCO3, pH 9.6, and aliquots of 100 μL were dispensed into each well of the plate using a multichannel pipette. This buffer pH assured a strong hydrophobic binding interaction between polystyrene and virus particles.
(§2) Intact particles both ZIKV and DENV were provided by Dr. Watkins group (University of Miami, Dep. of Pathology). The samples were controlled and counted by focus forming assay and RT-PCR, the details were reported in a previous work (Magnani et al., 2017). The Intact particles of ZIKV were inactivated using gamma irradiation. Assay biohazardous steps were carried out according to standard safety procedures.
(§3) The cross-reactivity among Flaviviruses is a key parameter to be tested for this assay. Using the same ELISA protocol, the three clamp peptides (C3, C6 and C7) with higher sensitivity versus the intact ZIKV particles where employed to test the ability to discriminate ZIKV from the three serotypes of DENV (DENV-1, -2 and -3).
(§4) The results shown in FIG. 4 were obtained by coating clear 96-well plates with a solution of 10^^5 copies/mL of intact virus particles. […]

intact ZIKV particles [3] = test: Direct ELISA of biotinylated peptides vs intact ZIKV particles; assay type: binding, Zika virus (ZIKV); conditions: dose-response curves
Procedure: as §1, §2
After coating the plates overnight, the intact virus particles were removed by washing five times with the washing buffer (PBST) 10 mM PBS pH 7.4, 0.1% Tween-20, using an automated plate washer (MultiWash+, Molecular Devices, Sunnyvale, Calif.). Then, the plates were blocked with 200 μL of blocking buffers while shaking at 300 rpm at room temperature. The blocking buffers used were: Pierce™ Protein-Free (PBS) Blocking Buffer (PF), Blocker™ BLOTTO in TBS, SuperBlock™ Blocking Buffer, Blocker™ BSA (1×) in PBS. All blocking buffer were from ThermoFisher Scientific.
After 2 h the blocking buffers were removed using the same washing procedure mentioned above. 100 μL-aliquots of several dilutions of peptides biotinylated in 10 mM PBS pH 7.4 were placed in each well and incubated for 2 h while shaking at 300 rpm at room temperature. After the incubation, the unreacted peptides were removed by using the plate washer with the same settings. Then, 100 μL-aliquots of streptavidin-HRP (ThermoFisher Scientific) at a concentration of 20 ng/mL were added into each well and incubated for 30 min at room temperature without shaking. After the incubation, excess streptavidin-HRP was removed and the wells were washed with the plate washer five times using the washing buffer. Finally, 100 μL-aliquots of the Ultra TMB-ELISA Substrate Solution (ThermoFisher Scientific) were added and after 10 min the reaction was stopped by adding 100 μL aliquots of the TMB stop solution (SeraCare). The emission (450 nm) was read using a microplate reader (Clariostar Optima; BMG Labtech, Ortenberg, Germany).
The corresponding blank signals in triplicates were obtained by using all reagents without peptides. The blank signal was then subtracted to the average absorbance values for triplicate wells of each test. […]

DENV-3 = test: Direct ELISA cross-reactivity study, DENV-3; assay type: binding, Dengue virus (DENV); conditions: plates coated with 10^5 copies/mL of intact virus particles
Procedure: as §1, §2, §3, §4

DENV-2 = test: Direct ELISA cross-reactivity study, DENV-2; assay type: binding, Dengue virus (DENV); conditions: plates coated with 10^5 copies/mL of intact virus particles
Procedure: as §1, §2, §3, §4

With “C3: clamp peptide: WPWIGT (18) - bridge GPGCCGPG (32) - KRNATP (26) (WPWIGTGPGCCGPGKRNATP; C3 Binds to Active Site 2; Bridge peptide; C3 Binds to Active Site 1)” the “performance in urine and serum” value (intact ZIKV particles [1]) was “better performance in urine than serum”, the “signal decrease, DENV relative to ZIKV” value [2] was “around 70%” and the “dynamic range width (orders of magnitude)” value (shortened to “dynamic range width”) (intact ZIKV particles [3]) was “three-order of magnitude dynamic range”.
With “C6: clamp peptide: AGRRP (20) - bridge GPGCCGPG (32) - LRGHA (25) (AGRRPGPGCCGPGLRGHA; C5 Binds to Active Site 2; Bridge peptide; C2 Binds to Active Site 1)” the “performance in urine and serum” value (intact ZIKV particles [1]) was “strong decrease in the signal”, the “signal decrease, DENV-3 relative to ZIKV” value (DENV-3) was 55% and the “signal decrease, DENV-2 relative to ZIKV” value (DENV-2) was 45%. For the same substance, the “dynamic range width” value (intact ZIKV particles [3]) was “three-order of magnitude dynamic range”.
For “C7: clamp peptide: MDSPIK (22) - bridge GPGCCGPG (32) - KRNATP (26) (MDSPIKGPGCCGPGKRNATP; C7 Binds to Active Site 2; Bridge peptide; C3 Binds to Active Site 1)”, the “performance in urine and serum” value (intact ZIKV particles [1]) was “best performance among the three clamp peptides, having higher signals in serum than in urine”, the “signal decrease, DENV relative to ZIKV” value [2] was “around 70%” and the “dynamic range width” value (intact ZIKV particles [3]) was “three-order of magnitude dynamic range”.
With “C-SWPGQ (CSWPGQ; P1) [mono-arm pentapeptide with N-terminal cysteine]” the “dynamic range width” value (intact ZIKV particles [3]) was “one order of magnitude dynamic range”.
